Test results reported in the NIST ThermoML archive (doi:10.1016/j.tca.2013.08.007).

Assay: mn = molality of the nth substance listed, in mol/kg
Settings: 101 kPa, Liquid, Vibrating tube method

[Cl-].[Na+] [sodium chloride] + O
mass density [kg/m3]
Settings | m1 = 0.2 | m1 = 0.4 | m1 = 0.6 | m1 = 0.8 | m1 = 1 | m1 = 1.5
288.15 K | 1007.43 | 1015.66 | 1023.65 | 1031.47 | 1039.16 | 1058.09
298.15 K | 1005.16 | 1013.14 | 1020.96 | 1028.64 | 1036.19 | 1054.58
308.15 K | 1002.07 | 1009.91 | 1017.59 | 1025.13 | – | 1050.69
318.15 K | 998.17 | 1005.91 | – | 1020.82 | 1028.35 | 1046.38
